According to PubChem BioAssay AID1745844 (Carcinogenic Potency Database (CPDB), 2022):
Calls of active or inactive are those of the source. The rule behind the calls is not given here.

Tested on: rodent lifetime carcinogenesis bioassay, tumor incidence TD50
Assay: carcinogenic potency in animals, long-term in vivo studies, CPDB compilation (AID 1745844)

## CCN=[N+]([O-])CC
rat, strain Fischer 344, males, in drinking water, site: esophagus, lesion: several types, types named in the paper, dosed 30 weeks, study length 55 weeks
  TD50: 0.0302 mg/kg/day
rat, strain Fischer 344, males, in drinking water, site: liver, lesion: hemangiosarcoma, dosed 30 weeks, study length 55 weeks
  TD50: 0.0347 mg/kg/day
rat, strain Fischer 344, males, in drinking water, site: liver, lesion: hepatocellular carcinoma, dosed 30 weeks, study length 55 weeks
  TD50: 0.0347 mg/kg/day
rat, strain Fischer 344, males, in drinking water, site: liver, lesion: neurosarcoma, dosed 30 weeks, study length 55 weeks
  TD50: 0.0971 mg/kg/day
rat, strain Fischer 344, males, in drinking water, site: liver, lesion: several types, types named in the paper, dosed 30 weeks, study length 55 weeks
  carcinogen call: positive
rat, strain Fischer 344, males, in drinking water, site: nasal cavity, lesion: several types, types named in the paper, dosed 30 weeks, study length 55 weeks
  TD50: 0.022 mg/kg/day

## O
mouse, strain B6C3F1, females, in drinking water, site: any site (literature study), lesion: several types, types named in the paper, dosed 104 weeks, study length 105 weeks
  TD50: 806 mg/kg/day (inactive)
mouse, strain B6C3F1, females, in drinking water, site: liver, lesion: hepatocellular adenoma + hepatoblastoma + hepatocellular carcinoma, dosed 104 weeks, study length 105 weeks
  TD50: 4410 mg/kg/day
mouse, strain B6C3F1, females, in drinking water, site: lung, lesion: alveolar/bronchiolar adenoma + alveolar/bronchiolar carcinoma, dosed 104 weeks, study length 105 weeks
  TD50: 13400 mg/kg/day
mouse, strain B6C3F1, females, in feed, site: all sites, lesion: lymphoma and leukemia, combined, dosed 96 weeks, study length 104 weeks
  carcinogen call: negative (inactive)
mouse, strain B6C3F1, females, in feed, site: liver, lesion: hemangioma, dosed 96 weeks, study length 104 weeks
  carcinogen call: negative (inactive)
mouse, strain B6C3F1, females, in feed, site: liver, lesion: hemangiosarcoma, dosed 96 weeks, study length 104 weeks
  TD50: 57500 mg/kg/day (inactive)
mouse, strain B6C3F1, females, in feed, site: liver, lesion: hepatocellular carcinoma, dosed 96 weeks, study length 104 weeks
  carcinogen call: negative (inactive)
mouse, strain B6C3F1, females, in feed, site: liver, lesion: hyperplastic nodule, dosed 96 weeks, study length 104 weeks
  TD50: 60500 mg/kg/day (inactive)
mouse, strain B6C3F1, females, in feed, site: lung, lesion: adenocarcinoma, dosed 96 weeks, study length 104 weeks
  TD50: 260000 mg/kg/day (inactive)
mouse, strain B6C3F1, females, in feed, site: lung, lesion: adenoma, dosed 96 weeks, study length 104 weeks
  TD50: 100000 mg/kg/day (inactive)
mouse, strain B6C3F1, males, in drinking water, site: all sites, lesion: hemangioma, dosed 103 weeks, study length 103 weeks
  TD50: 3470 mg/kg/day (inactive)
mouse, strain B6C3F1, males, in feed, site: all sites, lesion: lymphoma and leukemia, combined, dosed 96 weeks, study length 104 weeks
  TD50: 10700 mg/kg/day (inactive)
mouse, strain B6C3F1, males, in feed, site: liver, lesion: hemangioma, dosed 96 weeks, study length 104 weeks
  TD50: 24400 mg/kg/day (inactive)
mouse, strain B6C3F1, males, in feed, site: liver, lesion: hemangiosarcoma, dosed 96 weeks, study length 104 weeks
  TD50: 46700 mg/kg/day (inactive)
mouse, strain B6C3F1, males, in feed, site: liver, lesion: hepatocellular carcinoma, dosed 96 weeks, study length 104 weeks
  carcinogen call: negative (inactive)
mouse, strain B6C3F1, males, in feed, site: liver, lesion: hyperplastic nodule, dosed 96 weeks, study length 104 weeks
  carcinogen call: negative (inactive)
mouse, strain B6C3F1, males, in feed, site: lung, lesion: adenocarcinoma, dosed 96 weeks, study length 104 weeks
  carcinogen call: negative (inactive)
mouse, strain B6C3F1, males, in feed, site: lung, lesion: adenoma, dosed 96 weeks, study length 104 weeks
  TD50: 87600 mg/kg/day (inactive)
rat, strain Fischer 344, females, in drinking water, site: any site (literature study), lesion: several types, types named in the paper, dosed 105 weeks, study length 105 weeks
  carcinogen call: negative (inactive)
rat, strain Fischer 344, males, in drinking water, site: any site (literature study), lesion: several types, types named in the paper, dosed 104 weeks, study length 104 weeks
  carcinogen call: negative (inactive)

## OC(c1ccc(Cl)cc1)(c1ccc(Cl)cc1)C(Cl)(Cl)Cl
mouse, strain B6C3F1, females, in feed, site: any site (literature study), lesion: several types, types named in the paper, dosed 78 weeks, study length 91 weeks
  carcinogen call: negative (inactive)
mouse, strain B6C3F1, males, in feed, site: any site (literature study), lesion: several types, types named in the paper, dosed 78 weeks, study length 91 weeks
  TD50: 59.2 mg/kg/day
mouse, strain B6C3F1, males, in feed, site: liver, lesion: hepatocellular adenoma + hepatocellular carcinoma + neoplastic nodule, dosed 78 weeks, study length 91 weeks
  TD50: 32.9 mg/kg/day
mouse, strain B6C3F1, males, in feed, site: liver, lesion: hepatocellular adenoma + hepatocellular carcinoma, dosed 78 weeks, study length 91 weeks
  TD50: 32.9 mg/kg/day
mouse, strain B6C3F1, males, in feed, site: liver, lesion: hepatocellular carcinoma, dosed 78 weeks, study length 91 weeks
  TD50: 34.8 mg/kg/day
mouse, strain B6C3F1, males, in feed, site: lung, lesion: alveolar/bronchiolar adenoma + alveolar/bronchiolar carcinoma, dosed 78 weeks, study length 91 weeks
  TD50: 616 mg/kg/day
rat, strain Osborne-Mendel, females, in feed, site: any site (literature study), lesion: several types, types named in the paper, dosed 78 weeks, study length 111 weeks
  carcinogen call: negative (inactive)
rat, strain Osborne-Mendel, males, in feed, site: any site (literature study), lesion: several types, types named in the paper, dosed 78 weeks, study length 110 weeks
  carcinogen call: negative (inactive)
rat, strain Osborne-Mendel, males, in feed, site: liver, lesion: hepatocellular adenoma + hepatocellular carcinoma + neoplastic nodule, dosed 78 weeks, study length 110 weeks
  TD50: 517 mg/kg/day

## COP(=S)(OC)Oc1ccc([N+](=O)[O-])cc1
mouse, strain B6C3F1, females, in feed, site: any site (literature study), lesion: several types, types named in the paper, dosed 102 weeks, study length 102 weeks
  carcinogen call: negative (inactive)
mouse, strain B6C3F1, females, in feed, site: lung, lesion: alveolar/bronchiolar adenoma + alveolar/bronchiolar carcinoma, dosed 102 weeks, study length 102 weeks
  TD50: 125 mg/kg/day
mouse, strain B6C3F1, males, in feed, site: any site (literature study), lesion: several types, types named in the paper, dosed 102 weeks, study length 102 weeks
  carcinogen call: negative (inactive)
mouse, strain B6C3F1, males, in feed, site: lung, lesion: alveolar/bronchiolar adenoma + alveolar/bronchiolar carcinoma, dosed 102 weeks, study length 102 weeks
  TD50: 58.1 mg/kg/day
rat, strain Fischer 344, females, in feed, site: any site (literature study), lesion: several types, types named in the paper, dosed 105 weeks, study length 105 weeks
  carcinogen call: negative (inactive)
rat, strain Fischer 344, males, in feed, site: any site (literature study), lesion: several types, types named in the paper, dosed 105 weeks, study length 105 weeks
  carcinogen call: negative (inactive)
